Test results: US8354269B2 (priority 2008, dated 2013)
Like-named read-outs stand apart in the source and are kept apart here.

What was measured:
[1] = tested on: Clostridium autoethanogenum culture 19630; details: 54 hours
Procedure: To determine the cell density in these experiments, the absorbance of the samples was measured at 600 nm (spectrophotometer) and the dry mass determined by extrapolation.
Each well was inoculated with 50 μL of an actively growing Clostridium autoethanogenum culture 19630 from a continuous bioreactor. The wells were then mixed thoroughly and 200 ul from each well was added to a 96 well tissue culture plate. The plate was then sealed with a gas permeable sealing film and placed into an anaerobic pressure vessel. This vessel was pressurized to 30 psi with 100% CO gas and placed on an orbital shaker (150 rpm) in an incubated chamber at 37° C. Samples were analyzed at 54 hours after incubation.

[2] = tested on: Clostridium carboxidivorans DSM15243;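 further: growth tracked as optical density at 600 nm, while ethanol and acetate were quantified in culture samples by HPLC with a refractive index detector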
Procedure: (§1) High Performance Liquid Chromatography (HPLC) was used to characterize the level of substrates and products such as for acetate, ethanol, fructose, xylose and pyruvate. HPLC System Agilent 1100 Series. Mobile Phase: 0.0025N Sulphuric Acid. Flow and pressure: 0.800 mL/min. Column: Alltech IOA; Catalog #9648, 150×6.5 mm, particle size 5 μm. Temperature of column: 60° C. Detector: Refractive Index. Temperature of detector: 45° C.
(§2) Method for sample preparation: 400 μL of sample+50 μL of 0.15M ZnSO4+50 μL of 0.15M Ba(OH)2 into an Eppendorf tube. Centrifuge 10 min at 12,000 rpm, 4° C. Transfer 200 μL supernatant into an HPLC vial and inject into the HPLC instrument 5 μL.
(§3) Growth was monitored by measuring the optical density at 600 nm (OD600nm) and metabolites were detected by HPLC.

[3] = tested on: Clostridium ljungdahlii DSM13528
Procedure: as §1, §2, §3

Work on `[Cl][Ni][Cl]` [Nickel, nickel chloride] yielded a Cell density ([1]; Additional Nickel 100 μM) of 0.23 g/L, a Cell density ([1]; Additional Nickel 200 μM) of 0.25 g/L and a Cell density ([1]; Additional Nickel 300 μM) of 0.28 g/L. It also gave a Cell density ([1]; Additional Nickel 400 μM) of 0.30 g/L, a Cell density ([1]; Additional Nickel 500 μM) of 0.35 g/L and a Cell density ([1]; Additional Nickel 600 μM) of 0.31 g/L. The Cell density ([1]; Additional Nickel 700 μM) was 0.37 g/L, the Cell density ([1]; Additional Nickel 800 μM) was 0.45 g/L and the Cell density ([1]; Additional Nickel 900 μM) was 0.43 g/L. For the same compound, the Cell density ([1]; Additional Nickel 1000 μM) was 0.39 g/L, the Ethanol ([2]; Nickel 200 μM, 0 h) was 0.18 ± 0.01 g/L and the OD600 nm ([2]; Nickel 200 μM, 0 h) was 0.010 ± 0.001. For the same compound, the Acetate ([2]; Nickel 200 μM, 30 h) was 0.37 ± 0.13 g/L, the Ethanol ([2]; Nickel 200 μM, 30 h) was 0.18 ± 0.01 g/L and the OD600 nm ([2]; Nickel 200 μM, 30 h) was 0.185 ± 0.052. The Acetate ([2]; Nickel 200 μM, 54 h) was 0.38 ± 0.02 g/L, the Ethanol ([2]; Nickel 200 μM, 54 h) was 0.33 ± 0.02 g/L and the OD600 nm ([2]; Nickel 200 μM, 54 h) was 0.239 ± 0.028. For the same compound, the Acetate ([2]; Nickel 200 μM, 102 h) was 0.43 ± 0.09 g/L, the Ethanol ([2]; Nickel 200 μM, 102 h) was 0.33 ± 0.19 g/L and the OD600 nm ([2]; Nickel 200 μM, 102 h) was 0.274 ± 0.025. For the same compound, the Acetate ([2]; Nickel 200 μM, 127 h) was 0.61 ± 0.02 g/L, the Ethanol ([2]; Nickel 200 μM, 127 h) was 6.69 ± 0.08 g/L and the OD600 nm ([2]; Nickel 200 μM, 127 h) was 0.285 ± 0.046. It also gave an Ethanol ([2]; Nickel 400 μM, 0 h) of 0.18 ± 0.06 g/L, an OD600 nm ([2]; Nickel 400 μM, 0 h) of 0.011 ± 0.002 and an Acetate ([2]; Nickel 400 μM, 30 h) of 0.35 ± 0.02 g/L. For the same compound, the Ethanol ([2]; Nickel 400 μM, 30 h) was 0.33 ± 0.11 g/L, the OD600 nm ([2]; Nickel 400 μM, 30 h) was 0.271 ± 0.001 and the Acetate ([2]; Nickel 400 μM, 54 h) was 0.41 ± 0.02 g/L. It also gave an Ethanol ([2]; Nickel 400 μM, 54 h) of 0.75 ± 0.01 g/L, an OD600 nm ([2]; Nickel 400 μM, 54 h) of 0.310 ± 0.037 and an Acetate ([2]; Nickel 400 μM, 102 h) of 0.37 ± 0.19 g/L. For the same compound, the Ethanol ([2]; Nickel 400 μM, 102 h) was 0.86 ± 0.03 g/L, the OD600 nm ([2]; Nickel 400 μM, 102 h) was 0.304 ± 0.035 and the Acetate ([2]; Nickel 400 μM, 127 h) was 0.47 ± 0.03 g/L. It also gave an Ethanol ([2]; Nickel 400 μM, 127 h) of 0.89 ± 0.08 g/L, an OD600 nm ([2]; Nickel 400 μM, 127 h) of 0.291 ± 0.026 and an Ethanol ([2]; Nickel 700 μM, 0 h) of 0.20 ± 0.01 g/L. The OD600 nm ([2]; Nickel 700 μM, 0 h) was 0.010 ± 0.001, the Acetate ([2]; Nickel 700 μM, 30 h) was 0.34 ± 0.01 g/L and the Ethanol ([2]; Nickel 700 μM, 30 h) was 0.27 ± 0.01 g/L. The OD600 nm ([2]; Nickel 700 μM, 30 h) was 0.402 ± 0.014, the Acetate ([2]; Nickel 700 μM, 54 h) was 0.40 ± 0.05 g/L and the Ethanol ([2]; Nickel 700 μM, 54 h) was 0.84 ± 0.03 g/L. For the same compound, the OD600 nm ([2]; Nickel 700 μM, 54 h) was 0.689 ± 0.097, the Acetate ([2]; Nickel 700 μM, 102 h) was 0.65 ± 0.06 g/L and the Ethanol ([2]; Nickel 700 μM, 102 h) was 0.86 ± 0.25 g/L. It also gave an OD600 nm ([2]; Nickel 700 μM, 102 h) of 0.519 ± 0.078, an Acetate ([2]; Nickel 700 μM, 127 h) of 0.63 ± 0.32 g/L and an Ethanol ([2]; Nickel 700 μM, 127 h) of 1.01 ± 0.17 g/L. The OD600 nm ([2]; Nickel 700 μM, 127 h) was 0.584 ± 0.088, the Ethanol ([2]; Nickel 1000 μM, 0 h) was 0.18 ± 0.01 g/L and the OD600 nm ([2]; Nickel 1000 μM, 0 h) was 0.009 ± 0.001. For the same compound, the Acetate ([2]; Nickel 1000 μM, 30 h) was 0.29 ± 0.04 g/L, the Ethanol ([2]; Nickel 1000 μM, 30 h) was 0.44 ± 0.09 g/L and the OD600 nm ([2]; Nickel 1000 μM, 30 h) was 0.705 ± 0.014. It also gave an Acetate ([2]; Nickel 1000 μM, 54 h) of 0.39 ± 0.02 g/L, an Ethanol ([2]; Nickel 1000 μM, 54 h) of 0.74 ± 0.05 g/L and an OD600 nm ([2]; Nickel 1000 μM, 54 h) of 1.058 ± 0.006. For the same compound, the Acetate ([2]; Nickel 1000 μM, 102 h) was 0.62 ± 0.21 g/L, the Ethanol ([2]; Nickel 1000 μM, 102 h) was 0.88 ± 0.03 g/L and the OD600 nm ([2]; Nickel 1000 μM, 102 h) was 0.943 ± 0.002. The Acetate ([2]; Nickel 1000 μM, 127 h) was 0.47 ± 0.11 g/L, the Ethanol ([2]; Nickel 1000 μM, 127 h) was 1.04 ± 0.02 g/L and the OD600 nm ([2]; Nickel 1000 μM, 127 h) was 0.981 ± 0.088. The Ethanol ([3]; Nickel 200 μM, 0 h) was 0.23 ± 0.02 g/L, the OD600 nm ([3]; Nickel 200 μM, 0 h) was 0.010 ± 0.001 and the Acetate ([3]; Nickel 200 μM, 30 h) was 0.07 ± 0.07 g/L. The Ethanol ([3]; Nickel 200 μM, 30 h) was 0.23 ± 0.02 g/L, the OD600 nm ([3]; Nickel 200 μM, 30 h) was 0.057 ± 0.003 and the Acetate ([3]; Nickel 200 μM, 54 h) was 0.24 ± 0.10 g/L. The Ethanol ([3]; Nickel 200 μM, 54 h) was 0.27 ± 0.03 g/L, the OD600 nm ([3]; Nickel 200 μM, 54 h) was 0.163 ± 0.053 and the Acetate ([3]; Nickel 200 μM, 102 h) was 0.38 ± 0.10 g/L. The Ethanol ([3]; Nickel 200 μM, 102 h) was 0.57 ± 0.11 g/L, the OD600 nm ([3]; Nickel 200 μM, 102 h) was 0.273 ± 0.001 and the Acetate ([3]; Nickel 200 μM, 127 h) was 0.77 ± 0.24 g/L. The Ethanol ([3]; Nickel 200 μM, 127 h) was 0.58 ± 0.07 g/L, the OD600 nm ([3]; Nickel 200 μM, 127 h) was 0.284 ± 0.010 and the Ethanol ([3]; Nickel 400 μM, 0 h) was 0.22 ± 0.02 g/L. For the same compound, the OD600 nm ([3]; Nickel 400 μM, 0 h) was 0.011 ± 0.002, the Ethanol ([3]; Nickel 400 μM, 30 h) was 0.22 ± 0.01 g/L and the OD600 nm ([3]; Nickel 400 μM, 30 h) was 0.097 ± 0.024. For the same compound, the Acetate ([3]; Nickel 400 μM, 54 h) was 0.15 ± 0.04 g/L, the Ethanol ([3]; Nickel 400 μM, 54 h) was 0.21 ± 0.02 g/L and the OD600 nm ([3]; Nickel 400 μM, 54 h) was 0.114 ± 0.030. The Acetate ([3]; Nickel 400 μM, 102 h) was 0.20 ± 0.01 g/L, the Ethanol ([3]; Nickel 400 μM, 102 h) was 0.53 ± 0.31 g/L and the OD600 nm ([3]; Nickel 400 μM, 102 h) was 0.199 ± 0.103. It also gave an Acetate ([3]; Nickel 400 μM, 127 h) of 0.30 ± 0.19 g/L, an Ethanol ([3]; Nickel 400 μM, 127 h) of 0.77 ± 0.24 g/L and an OD600 nm ([3]; Nickel 400 μM, 127 h) of 0.310 ± 0.017. The Ethanol ([3]; Nickel 700 μM, 0 h) was 0.25 ± 0.01 g/L, the OD600 nm ([3]; Nickel 700 μM, 0 h) was 0.009 ± 0.001 and the Ethanol ([3]; Nickel 700 μM, 30 h) was 0.24 ± 0.01 g/L. For the same compound, the OD600 nm ([3]; Nickel 700 μM, 30 h) was 0.235 ± 0.076, the Acetate ([3]; Nickel 700 μM, 54 h) was 0.21 ± 0.05 g/L and the Ethanol ([3]; Nickel 700 μM, 54 h) was 0.35 ± 0.11 g/L. It also gave an OD600 nm ([3]; Nickel 700 μM, 54 h) of 0.427 ± 0.182, an Acetate ([3]; Nickel 700 μM, 102 h) of 0.24 ± 0.03 g/L and an Ethanol ([3]; Nickel 700 μM, 102 h) of 0.73 ± 0.01 g/L. It also gave an OD600 nm ([3]; Nickel 700 μM, 102 h) of 0.579 ± 0.062, an Acetate ([3]; Nickel 700 μM, 127 h) of 0.34 ± 0.16 g/L and an Ethanol ([3]; Nickel 700 μM, 127 h) of 0.82 ± 0.03 g/L. The OD600 nm ([3]; Nickel 700 μM, 127 h) was 0.528 ± 0.054, the Ethanol ([3]; Nickel 1000 μM, 0 h) was 0.24 ± 0.01 g/L and the OD600 nm ([3]; Nickel 1000 μM, 0 h) was 0.011 ± 0.001. For the same compound, the Ethanol ([3]; Nickel 1000 μM, 30 h) was 0.26 ± 0.01 g/L, the OD600 nm ([3]; Nickel 1000 μM, 30 h) was 0.549 ± 0.049 and the Acetate ([3]; Nickel 1000 μM, 54 h) was 0.23 ± 0.02 g/L. For the same compound, the Ethanol ([3]; Nickel 1000 μM, 54 h) was 0.42 ± 0.14 g/L, the OD600 nm ([3]; Nickel 1000 μM, 54 h) was 0.691 ± 0.017 and the Acetate ([3]; Nickel 1000 μM, 102 h) was 0.31 ± 0.03 g/L. For the same compound, the Ethanol ([3]; Nickel 1000 μM, 102 h) was 0.68 ± 0.26 g/L, the OD600 nm ([3]; Nickel 1000 μM, 102 h) was 0.862 ± 0.324 and the Acetate ([3]; Nickel 1000 μM, 127 h) was 0.46 ± 0.03 g/L. For the same compound, the Ethanol ([3]; Nickel 1000 μM, 127 h) was 0.98 ± 0.11 g/L and the OD600 nm ([3]; Nickel 1000 μM, 127 h) was 0.853 ± 0.329.
